Experimental data from publication PMC9016803, “Mitochondria-targeted half-sandwich iridium(III)-Cp*-arylimidazophenanthroline complexes as antiproliferative and bioimaging agents against triple negative breast cancer cells MDA-MB-468” (RSC Advances, 2022).

How the values were obtained:
BSA = biological target: T1, BSA (Bos taurus, UniProt P02769); experiment: BSA binding, tryptophan emission quenching; design: species or system bovine
T1 construct: purchased Sigma Aldrich Chemical Limited
Procedure: Upon excitation at 295 nm, the emission intensity of BSA at λem = 350 nm decreased gradually on increasing the complex concentration, which confirmed that the interaction between complex IrL1 with BSA had occurred, as observed in Fig. 8. The Stern–Volmer quenching constant of these complexes with BSA (KBSA) was calculated using the Stern–Volmer equation and the corresponding Stern–Volmer plots (Fig. 8, inset). The binding affinity (K) of the complexes was calculated from Scatchard plot analysis (Fig. 8, inset). […]
Kapp × [Complex]50 = kEtBr × [EtBr]⋯⋯⋯(iii) […]
Stern-Volmer equation was followed for quantitative determination of the Stern-Volmer quenching constant (K SV).5 Origin (8.5) software was used to plot the fluorescence data to obtain linear plot of I0/I vs. [complex]. The value of KSV was calculated from the following […]
Where I0 = fluorescence intensity in absence of complex and I = fluorescence intensities in presence of complex of concentration [Q].
We are acquainted with the fact that serum albumin proteins are the main component. […] After each addition, the solutions were shaken slowly for 5 min before recording the fluorescence at a wavelength of 295 nm (λex = 295 nm). A gradual decrease in fluorescence intensity of BSA at λ = 340 nm was observed upon increasing the concentration of complex, which confirmed […]
that the interaction between the complex and BSA was happened. Stern-Volmer equation was employed to quantitatively determine the quenching constant (K BSA). […]
Where I0 is the fluorescence intensity of BSA in absence of complex and I indicates the fluorescence intensity of BSA in presence of complex of concentration [Q], τ0 = lifetime of the tryptophan in BSA found as 1 x 10-8 and kq is the quenching constant. […]
To allow the phase separation, the solution was centrifuged for 10 min at 3000 rpm. […] Aliquots of the aqueous and octanol layers were pipetted out separately and the absorbances were measured with UV-Vis spectrophotometer using proper dilution. […]

MDA-MB-468 cells = experiment: MTT in vitro cytotoxicity assay, triple negative breast cancer cells; type: cell-based; conditions: MDA-MB-468, MTT, 48 h
Procedure: The in vitro cytotoxicity of complexes IrL1–IrL5 and cisplatin were investigated using the typical 3-(4,5-dimethylthiazol-2-yl)-2,5-diphenyltetrazolium bromide (MTT) assay protocol against a panel of triple negative cancer cell line MDA-MB-468. The cells were initially incubated with the all test compounds at concentrations ranging from 0.5–50 μM for 48 h in vitro.
Cytotoxicity study of all the synthesized compounds against triple negative breast cancer cells MDA-MB-468 and immortalized human keratinocyte cell line HaCaT were done with a drug incubation period of 48 h by following standard procedure that were mentioned in ESI. ^† Preliminary studies were done to understand the mode of action of the complex to induce cytotoxicity using flow cytometric methods.
For doing the cell culture the cells were retained in DMEM media (Gibco), added with 10% fetal bovine serum (Himedia, India), 1% penicillin and streptomycin and 1% of Glutmax (Gibco, Thermo Scientific, USA) at 37°C in 5% CO2. When the cells attained 70%-80% confluency they were trypsinized using 0.25% trypsin-EDTA (Thermo Fisher Scientific, […]
In vitro cytotoxicity study was measured by standard MTT assay protocol.1 First the prepared complexes (IrL1-IrL5) were dissolved in 0.1% DMSO followed by dilution with DMEM medium. One cancer cell lines i.e. triple negative breast cancer cells (MDA-MB-468) and one normal cell line i.e. immortalized human keratinocyte cell line (HaCaT) were used for this assay. Approximately 1×10^4 cells per well were cultured in 100 μl of a growth medium in 96-well plates and then incubated under 5% CO2 atmosphere at 37°C temperature. Then the incubated cells were treated with different concentrations of the complexes in the volume of […]. The cisplatin was taken as standard positive control for this experiment. The Cells which were in the control wells, also engaged the same volume of medium containing 0.1% DMSO. After 48 h, the medium was superfluous and cell cultures were again incubated with 100 μL of MTT reagent (1 mg/ml) for 5 h at 37 °C. Then the resultant suspension was kept on micro vibrator for 10 min and the absorbance was recorded at λ = 570 nm in ELISA plate reader. The experiment was also performed in triplicate. The data were represented as the growth inhibition percentage i.e. % growth inhibition = 100 − [(AD × 100)/AB], where AD, measured absorbance in wells which contain samples and AB, measured absorbance for blank wells (cells with a medium and a vehicle). […]

Solubility study = type: physicochemical; conditions: DMSO-10% DMEM medium (1 : 99 v/v, comparable to cell media)
Procedure: Both hydrophilicity and lipophilicity studies were performed to determine the tumour-inhibiting potential of the metal complexes. These complexes were highly soluble in DMSO and moderately soluble in H2O, MeOH, EtOH and CH3CN. […] The lipophilicity of these complexes was determined by performing an n-octanol/water partition coefficient (log Po/w, where Po/w = the octanol/water partition coefficient) study using the shake flask method (Table 1).[24] The experimental log Po/w values of these complexes were determined to be in the range of 0.27–0.34 (Table 1). […] This change in the electrolytic behaviour of the complexes from 1 : 1 to 1 : 2 can be attributed to the dissociation of the Ir–Cl bond and subsequent aquation of the complexes.

T1 sequence (P02769 25-607): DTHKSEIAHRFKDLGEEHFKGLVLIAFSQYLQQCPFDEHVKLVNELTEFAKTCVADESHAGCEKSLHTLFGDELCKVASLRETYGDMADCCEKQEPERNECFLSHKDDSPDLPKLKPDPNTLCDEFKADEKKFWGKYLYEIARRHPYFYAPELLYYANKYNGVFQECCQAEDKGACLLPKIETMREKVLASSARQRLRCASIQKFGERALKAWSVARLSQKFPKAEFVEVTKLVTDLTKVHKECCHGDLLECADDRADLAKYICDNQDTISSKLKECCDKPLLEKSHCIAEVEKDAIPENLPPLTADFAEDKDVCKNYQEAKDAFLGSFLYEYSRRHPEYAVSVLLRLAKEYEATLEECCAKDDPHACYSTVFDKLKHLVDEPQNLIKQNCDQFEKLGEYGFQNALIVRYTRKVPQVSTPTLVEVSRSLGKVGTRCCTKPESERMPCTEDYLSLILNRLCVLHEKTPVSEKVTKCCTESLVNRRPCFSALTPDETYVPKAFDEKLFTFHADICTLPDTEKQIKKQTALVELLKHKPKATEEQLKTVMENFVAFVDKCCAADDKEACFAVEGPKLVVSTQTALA

[Iridium(III)-Cp*-2-(naphthalen-1-yl)-1H-imidazo[4,5-f][1,10]phenanthroline]PF6 [IrL1]
K, binding affinity (Scatchard plot) (BSA; BSA): 6.3e+06 M⁻¹ | kq, bimolecular quenching constant (BSA; calculated from KSV and τ0 (1 × 10^−8 s)): 5 × 10^12 M^−1 S^−1 | KBSA, Stern–Volmer quenching constant with BSA (BSA; excitation 295 nm): 50000 M⁻¹ | IC50 (MDA-MB-468 cells): 3.67 µM | Solubility (Solubility study): 700 µM
